In data set [1] the test system is 2019 novel coronavirus (SARS-CoV-2) original strain. The experiment in a line: Replication inhibitory activity against SARS-CoV-2 original strain in Vero E6 cells (qRT-PCR). It is filed as cell-based. To be noted: Severe acute respiratory syndrome coronavirus 2, Vero C1008; Vero E6 cells, MOI 0.01, 24 h p.i., viral copy number by qRT-PCR; read-out: Inhibition against viral replication of the original strain EC50.

Data set [2] concerns Th1/Th17 differentiation of CD4+T cells. Nature of the data set: CD4+T cell in vitro differentiation assay (Th1 IFN-γ / Th17 IL-17A, flow cytometry). As to conditions: 10 μM, 72 h, IFN-γ/IL-17A by flow cytometry.
Procedure: CD4^+T cell isolation: CD4^+T cells were isolated from the spleens of 7-8 week old C57BL/6 mice using the Mouse CD4^+T Cell Sorting Kit (Dynabeads® Untouched™ Mouse CD4 Cells Isolation Kit, Invitrogen, Catalog nos: 11415D).
In vitro differentiation of CD4^+T cells: the isolated CD4^+T cells were inoculated into 96-well plates while different concentrations of compounds were added, and then corresponding cytokines and antibodies were added: anti-CD28 (2 μg/ml), anti-CD3 (2 μg/ml), Anti-IL-4 (10 μg/ml), IL-12 (10 ng/ml), Anti-IFN-γ (10 μg/ml), anti-IL-4 (10 μg/ml), IL-6 (30 ng/ml), TGF-β1 (3 ng/ml), IL-10 (10 ng/ml), IL-23 (10 ng/ml), and TNF-α (10 ng/ml). Cells were cultured in 5% CO2 at 37° C. in a cell culture chamber for 72 h. Cells were collected, stained intracellularly, analyzed by flow cytometry, and tested for IFN-γ/IL-17A content to assess the effect of compounds on CD4^+T differentiation into Th1/Th17 in vitro.
A further data set has as its system ALM12 hepatocytes. The experiment in a line: Anti H2O2-induced necrotic injury assay in ALM12 hepatocytes (microscopy, CCK-8). It counts as cell-based. To be noted: 2 mM H2O2, 1 μM compound, 3 hours, microscope and CCK-8. On the procedure: In this example, the effect of the compounds of the present invention on the level of necrotic injury induced by H2O2 in ALM12 hepatocytes was analyzed by microscopic morphological observations, cell viability in combination with cell death-associated molecules. Cell viability was analyzed by CCK-8 assay. ALM12 cells were cultured in 1640 medium (gibco, c11995500BT)+10% FBS (gibco, 10099141C) in a constant temperature incubator at 37° C., 5% CO2; the CCK-8 kit was purchased from Meilunbio, item no. MA0218-3; H2O2 was purchased from Sinopharm Chemical Reagent Co. item no. 10011208.
Experimental methods: first, 8000 cells/well ALM12 cells were placed in 96-well plates and incubated overnight. On the second day, 0.1% DMSO was added to the control cells, 2 mM H2O2 as well as 0.1% DMSO was added to the model group, 2 mM H2O2 as well as 1 μM of the compounds (oxy, 1, 2, tet, 3, 4, 6, 58) was added to the treatment group, and the 96-well plates were sterilized and incubated in a constant temperature incubator for 3 hours. Finally, cell injury and growth were observed using a microscope; the viability of the cells was detected by CCK-8 kit.

Another data set concerns Vero E6 cells. The experiment in a line: Cytotoxicity test on Vero E6 cells (CCK8). It is filed as cell-based. To be noted: Vero E6 cells. On the procedure:
(§1) In this embodiment, the half toxicity concentration of each embodiment on Vero E6 cells was determined by CCK8 kit analysis (CC50).

A short description of data set [3]: Cytotoxicity test on Vero E6 cells (CCK8). It counts as cell-based. As to conditions: African green monkey; Vero E6 cells, CCK8 kit. On the procedure: as §1
The test system of data set [4] is Raw 264.7 cells. Nature of the data set: Cell viability in TNF-α induced inflammation model of Raw 264.7 cells (CCK-8). It counts as cell-based. To be noted: 10 ng/ml TNF-α, 1 μM compound, 16 hours. As to the method: (§2) In this embodiment, the effect of compounds on TNF-α-induced inflammation levels in Raw 264.7 cells was analyzed by cell viability combined with inflammatory factor expression levels; cell viability was analyzed by CCK-8 assay; and mRNA expression levels of inflammation-associated indicators were detected by real-time quantitative PCR (Q-PCR) method. Raw 264.7 cells were purchased from ATCC, CCK-8 kit was purchased from Meilunbio, item number MA0218-3, TNF-α was purchased from Merck, item no. GF314.
Experimental methods: first, 8000 cells/well Raw 264.7 cells were placed in 96-well plates and incubated overnight. On the second day, 0.1% DMSO was added to the control cells, 10 ng/ml TNF-α as well as 0.1% DMSO was added to the model group, 10 ng/ml TNF-α as well as 1 μM of the compounds (oxyacanthine hydrochloride (oxy), 1, 2, tetrandrine (tet), 3, 4, 6, 58) was added to the treatment group, and the 96-well plates were sterilized and incubated in a constant temperature incubator for 16 hours. Finally, the viability of the cells was detected using the CCK-8 kit.

Another data set concerns the target T1, hERG potassium channel (Homo sapiens, UniProt Q12809).
T1 construct: expressed in transfected cells
The experiment in a line: hERG potassium channel whole-cell membrane clamp in CHO cells. It counts as cell-based. To be noted: CHO cells stably expressing hERG, whole-cell membrane clamp. As to the method: Compounds were given for at least 1 min for each tested concentration, and at least 2 cells (n≥2) were tested per concentration.

The subject of data set [5] is Raw 264.7 cells. Nature of the data set: Cell viability in LPS-induced inflammation model of Raw 264.7 cells (CCK-8). It counts as cell-based. To be noted: 1 μg/ml LPS, 1 μM compound, 16 hours. As to the method:
(§3) In this example, the effect of the compounds of the present invention on the inflammation level of the LPS-induced inflammation model of Raw 264.7 cells was analyzed by cell viability in combination with inflammatory factors; cell viability was analyzed by CCK-8 assay; and mRNA expression levels of inflammation-related indicators were detected by a real-time quantitative PCR (Q-PCR) method. Raw 264.7 cells were purchased from ATCC; CCK-8 kit was purchased from Meilunbio, item no. MA0218-3; LPS was purchased from Sigma, item no. L2630.
Experimental methods: first, 8000 cells/well Raw 264.7 cells were placed in 96-well plates and incubated overnight. On the second day, 0.1% DMSO was added to the control cells, 1 μg/ml LPS as well as 0.1% DMSO was added to the model group, 1 μg/ml LPS as well as 1 μM of the compounds (oxyacanthine hydrochloride (oxy), 1, 2, tetrandrine (tet), 3, 4, 6, 58) was added to the treatment group, and the 96-well plates were sterilized and incubated in a constant temperature incubator for 16 hours. Finally, the viability of the cells was detected using the CCK-8 kit.

Data set [6] relates to TNF-α and IL1β mRNA in A549 cells. Nature of the data set: mRNA levels of injury indicators in TNF-α-induced A549 cell injury (Q-PCR). It is filed as cell-based. To be noted: 10 ng/ml TNF-α, 1 μM compound, 24 hours. As to the method: In this example, cell viability combined with cell death-associated molecules were used to analyze the effect of compounds on the level of TNF-α-induced injury in A549 lung epithelial cells. Cell injury was observed by microscopy; cell viability was analyzed by CCK-8 assay; and mRNA expression levels of injury-related indicators were detected by real-time quantitative PCR (Q-PCR) method. A549 cells were purchased from ATCC, CCK-8 kit was purchased from Meilunbio, item no. MA0218-3, and LPS was purchased from Sigma, item no. L2630.
(§4) Experimental methods: first, 5*10^4 cells/well A549 cells were placed in 12-well plates and incubated overnight. On the second day, 0.1% DMSO was added to the control cells, 10 ng/ml TNF-α as well as 0.1% DMSO was added to the model group, 10 ng/ml TNF-α as well as 1 μM of the compounds (oxy, 1, 2, tet, 3, 4, 6, 58) was added to the treatment group, and the 12-well plates were sterilized and incubated in a constant temperature incubator for 24 hours. Cellular mRNA was extracted by lysis using Trizol (Yisheng, 10606ES60) and detected by real-time quantitative PCR after reverse transcription.

The target in data set [7] is novel coronavirus envelope protein (2-E) ion channel (Severe acute respiratory syndrome coronavirus 2, UniProt P0DTC4). The experiment in a line: Novel coronavirus envelope protein (2-E) ion channel activity test, planar lipid bilayer (BLM). It is filed as biochemical, SARS-CoV-2. To be noted: room temperature, 1, 10, 50, 100 μM, read-out: Inhibition against 2-E ion channels IC50.
novel coronavirus envelope protein (2-E) ion channel, sequence (P0DTC4 whole entry, looked up): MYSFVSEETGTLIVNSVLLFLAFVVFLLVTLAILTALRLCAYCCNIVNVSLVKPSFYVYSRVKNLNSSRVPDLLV

For the next data set, the system named is HCoV OC43 virus. Nature of the data set: Inhibition against HCoV OC43 virus replication. It is filed as cell-based, human coronavirus HCoV OC43.
Data set [8] has as its system inflammatory factor mRNA in Raw 264.7 cells. Nature of the data set: mRNA levels of inflammatory indicators in TNF-α-induced inflammation model of Raw264.7 cells (Q-PCR). It counts as cell-based. As to conditions: 10 ng/ml TNF-α, 1 μM compound, 16 hours. On the procedure: as §2
as §4, with “Raw 264.7” for “A549”, “(oxyacanthine hydrochloride (oxy),” for “(oxy,”, “tetrandrine (tet),” for “tet,”, “16” for “24”, “transcription, the primers are the same as in Table 2.” for “transcription.”

Data set [9] has as its system IL-6, IL-1β, CXCL9 mRNA in Raw 264.7 cells. The experiment in a line: mRNA levels of inflammatory indicators in LPS-induced inflammation model of Raw264.7 cells (Q-PCR). As to conditions: 1 μg/ml LPS, 1 μM compound, 16 hours. It counts as cell-based. As to the method:
as §3
as §4, with “Raw 264.7” for “A549”, “1 μg/ml LPS” for “10 ng/ml TNF-α”, “(oxyacanthine hydrochloride (oxy),” for “(oxy,”, “tetrandrine (tet),” for “tet,”, “16” for “24”

Entries after “also recorded” stand apart in the source; their conditions may differ.

T1 sequence (Q12809 whole entry): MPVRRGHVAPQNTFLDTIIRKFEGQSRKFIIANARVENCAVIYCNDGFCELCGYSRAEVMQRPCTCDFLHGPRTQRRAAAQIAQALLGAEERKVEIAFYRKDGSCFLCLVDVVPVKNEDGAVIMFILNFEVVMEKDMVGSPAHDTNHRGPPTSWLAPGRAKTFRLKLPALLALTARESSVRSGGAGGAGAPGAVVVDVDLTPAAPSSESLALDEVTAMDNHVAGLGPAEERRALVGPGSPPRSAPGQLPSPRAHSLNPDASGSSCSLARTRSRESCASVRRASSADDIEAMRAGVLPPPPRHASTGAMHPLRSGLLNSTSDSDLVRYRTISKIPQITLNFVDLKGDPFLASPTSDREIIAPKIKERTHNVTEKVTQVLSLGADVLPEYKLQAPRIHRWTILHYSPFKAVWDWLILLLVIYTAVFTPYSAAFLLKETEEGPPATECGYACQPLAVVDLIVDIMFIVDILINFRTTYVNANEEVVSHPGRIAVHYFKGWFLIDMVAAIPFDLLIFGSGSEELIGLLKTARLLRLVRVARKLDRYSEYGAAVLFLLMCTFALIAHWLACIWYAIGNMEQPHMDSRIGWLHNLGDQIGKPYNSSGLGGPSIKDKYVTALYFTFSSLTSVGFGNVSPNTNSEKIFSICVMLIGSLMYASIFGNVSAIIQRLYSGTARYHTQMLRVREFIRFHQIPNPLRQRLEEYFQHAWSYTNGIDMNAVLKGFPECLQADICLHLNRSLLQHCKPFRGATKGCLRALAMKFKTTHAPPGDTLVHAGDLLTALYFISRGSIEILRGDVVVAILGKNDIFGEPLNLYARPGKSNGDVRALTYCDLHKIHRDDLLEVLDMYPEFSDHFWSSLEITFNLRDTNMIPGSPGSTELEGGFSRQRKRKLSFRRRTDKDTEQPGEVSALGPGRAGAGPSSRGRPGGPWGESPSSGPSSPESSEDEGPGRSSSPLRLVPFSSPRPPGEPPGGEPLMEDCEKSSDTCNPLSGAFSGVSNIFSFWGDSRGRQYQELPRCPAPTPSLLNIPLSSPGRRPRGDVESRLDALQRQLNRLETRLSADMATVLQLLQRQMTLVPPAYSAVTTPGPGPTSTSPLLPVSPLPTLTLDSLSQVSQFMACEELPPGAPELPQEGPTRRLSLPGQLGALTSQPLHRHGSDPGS

On to `COC(=O)c1ccc2cc1Oc1ccc(cc1)C[C@H]1c3c(cc(OC)c(OC)c3Oc3cc4c(cc3OC)CCN(C)[C@@H]4C2)CCN1C` [Compound 3], for which the EC50 is 0.1 to 1 µM in data set [1] and 2.3 µM in the data set with HCoV OC43 virus (Betacoronavirus 1, OC43). In addition, the “inhibitory effect on Th1/Th17 differentiation” value in data set [2] is given as “strong inhibitory effect”. For the same compound, the “alleviation of H2O2-induced ALM12 hepatocyte injury” value (shortened to “alleviation”) in the data set with ALM12 hepatocytes is listed as “significantly alleviated”. Also, the “cytotoxicity on Vero E6 cells compared with oxyacanthine hydrochloride” value in the data set on Vero E6 cells is “weaker cytotoxicity than oxyacanthine hydrochloride”. The IC50 in data set [3] was 30 to 50 µM; against hERG potassium channel, 7 µM; in data set [7], under 10 µM. Besides, the “cell viability in TNF-α-induced inflammation model” value in the data set on Raw 264.7 cells [4] is on record as “did not affect cell viability”. The “cell viability in LPS-induced inflammation model” value with Raw 264.7 cells [5] is listed as “did not affect cell viability”. Also, the “inhibition of injury (damage) factors mRNA in TNF-α-induced A549 lung cell injury model” value in data set [6] is listed as “significantly inhibited the damage factors”. In addition, the “inhibition against human coronavirus HCoV OC43” value in the data set on HCoV OC43 virus was “strong inhibition”. For the same compound, the “inhibition of inflammatory factors (mRNA) in TNF-α-induced inflammation model” value (“inhibition … in TNF-α-induced inflammation model” for short) in data set [8] was “significantly inhibited inflammatory factors; also recorded: significant inhibition”.

For the compound `COc1cc2c3cc1Oc1c(OC)c(OC)cc4c1[C@H](Cc1ccc(cc1)Oc1cc(ccc1C(=O)NC1CC1)C[C@H]3N(C)CC2)N(C)CC4` [Compound 6], in data set [1], the EC50 was 0.1 to 1 µM. The “inhibitory effect on Th1/Th17 differentiation” value in data set [2] was “strong inhibitory effect”. Besides, the “alleviation” value with ALM12 hepatocytes is “significantly alleviated”. Besides, the “cytotoxicity on Vero E6 cells compared with oxyacanthine hydrochloride” value in the data set with Vero E6 cells was “weaker cytotoxicity than oxyacanthine hydrochloride”. For the same compound, the IC50 was over 50 µM in data set [3] and 8.9 µM against hERG potassium channel. In addition, the “cell viability in TNF-α-induced inflammation model” value in the data set on Raw 264.7 cells [4] was “did not affect cell viability”. Also, the “cell viability in LPS-induced inflammation model” value in the data set on Raw 264.7 cells [5] was “did not affect cell viability”. Moreover, the “inhibition … in TNF-α-induced inflammation model” value in data set [8] is “significantly inhibited inflammatory factors; also recorded: significant inhibition”.

In the case of `COc1cc2c3cc1Oc1c(OC)c(OC)cc4c1[C@H](Cc1ccc(cc1)Oc1cc(ccc1C(=O)OCCOCCO)C[C@H]3N(C)CC2)N(C)CC4` [Compound 58], the EC50 in data set [1] was in the range of 0.1 to 1 µM. Further, in data set [2], the “inhibitory effect on Th1/Th17 differentiation” value was “strong inhibitory effect”. The “alleviation” value with ALM12 hepatocytes is given as “significantly alleviated”. The “cytotoxicity on Vero E6 cells compared with oxyacanthine hydrochloride” value in the data set on Vero E6 cells is reported as “weaker cytotoxicity than oxyacanthine hydrochloride”. For the same compound, the IC50 in [3] is over 50 µM; against hERG potassium channel, 16.5 µM. Also, the “cell viability in TNF-α-induced inflammation model” value with Raw 264.7 cells [4] is on record as “did not affect cell viability”. Also, in [9], the “inhibition of inflammatory factors (IL-6, IL-1β, CXCL9 mRNA) in LPS-induced inflammation model” value is “significantly inhibited inflammatory factors; also recorded: significant inhibition”. The “cell viability in LPS-induced inflammation model” value with Raw 264.7 cells [5] was “did not affect cell viability”. The “inhibition of injury (damage) factors mRNA in TNF-α-induced A549 lung cell injury model” value in [6] is “significantly inhibited the damage factors”. Moreover, in [8], the “inhibition … in TNF-α-induced inflammation model” value is “significantly inhibited inflammatory factors; also recorded: significant inhibition”.

Source of the values: patent publication US20250296937A1, “CYCLIC BISBENZYL TETRAHYDROISOQUINOLINE COMPOUND, AND PREPARATION METHOD THEREFOR AND USE THEREOF” (Shanghai Institute of Materia Medica, Chinesse Academy of …, priority 2021, published 2025).
